# Results: patent US6646137B1, “Non-peptide GnRH agents” (priority 1998, dated 2003)
# Target: T1, human GnRH receptor (Homo sapiens, UniProt P30968)
# T1 construct: The cDNA for the human GnRH receptor is cloned into the plasmid expression vector, pcDNA 3; expressed in transfected cells; host or cells: HEK 293 cells, stably transfected (pcDNA 3); membrane preparation
# T1 sequence (P30968 1-328): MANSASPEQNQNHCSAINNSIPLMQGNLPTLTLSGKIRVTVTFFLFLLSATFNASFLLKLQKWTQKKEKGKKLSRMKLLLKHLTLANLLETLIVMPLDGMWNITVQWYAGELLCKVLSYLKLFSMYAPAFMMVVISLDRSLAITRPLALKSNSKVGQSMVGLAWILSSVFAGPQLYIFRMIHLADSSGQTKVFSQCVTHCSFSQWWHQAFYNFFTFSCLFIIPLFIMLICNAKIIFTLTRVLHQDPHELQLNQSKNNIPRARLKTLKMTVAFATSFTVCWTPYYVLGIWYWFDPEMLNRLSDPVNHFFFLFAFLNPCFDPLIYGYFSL
# Test: GnRH receptor competitive radioligand binding assay (125I-GnRH-A, HEK 293 cell membranes)
# Conditions: compound at 10 μM; average of 1st and 2nd test; read-out: Average % Remaining (percent of specific binding remaining)
# Description: The cDNA for the human GnRH receptor is cloned into the plasmid expression vector, pcDNA 3 (In Vitrogen), and stably transfected in HEK 293 cells (a cell line developed by Dr. Stuart Sealfon, Mount Sinai Medical School, New York, N.Y.).
# The human GnRH receptor (hGnRH) is cloned into pcDNA 3 (In Vitrogen), which provides high-level expression and a neomycin resistance marker. Lipofectamine (GIBCO BRL) is used to transfect HEK 293 cells with plasmid DNA. This method involves mixing the plasmid and reagent in serum-free medium, allowing DNA-liposome complexes to form, and overlaying cells with this solution. The HEK 293 cells are plated (seeded) on a 10-cm tissue culture dish at a density of 3×10^6 cells/dish the day before transfection. For each plate, 8 μg DNA plus 0.8 mL serum-free medium is mixed with 48 μL lipofectamine plus 0.8 mL serum-free medium, followed by incubation for 30 minutes at room temperature to allow DNA-liposome complexes to form. Serum-free medium is added to give a final volume of 6 mL/plate. The cells are rinsed twice with serum-free medium and overlayed with the DNA-liposome mixture. Five hours after transfection, an equal volume (6 mL) of medium containing 20% FBS (fetal bovine serum) is added. The cells are fed with fresh complete medium 18-24 hours after transfection. The cells are split 72 hours following transfection, at densities of 1:10 and 1:20. Stable tranformants are selected for by growth of the cells in antibiotic containing medium (G418, Sigma Chemical Company (also known as Geneticin)). Colonies are isolated and tested for receptor expression by radioligand binding and by measuring phosphoinositol turnover.
# HEK 293 cells stably transfected with human GnRH receptors as described above are grown in MEM (minimal essential medium, available from Sigma Chemical Company) supplemented with 0.1% G418 (Sigma Chemical Company). Cells are homogenized in buffer A containing 50 mM Tris (pH 74.), 0.32M sucrose, 2 mM ethyleneglycol-bis(β-aminoethyl)-N,N,N′,N′-tetraacetic acid (EGTA), 1 mM phenylmethylsulfonyl fluoride (PMSF), 5 μg/mL aprotinen, 5 μg/mL Pepstatin A, and 1 μg/mL leupeptin. The homogenized cells are centrifuged at 4° C. at 20,000×g for 25 minutes, resuspended in buffer A, and recentrifuged at 4° C. at 20,000×g for an additional 25 minutes. Total membrane protein is determined with a BCA kit (Pierce, Rockford, Ill.). Membranes are stored at −70° C. at a final membrane protein concentration of 5 mg/mL.
# The radioiodinated agonist analog of GnRH, [des-Gly^10, D-Ala^8]GnRH ethylamide (GnRH-A), is used as the labeled ligand. One μg of GnRH-A diluted in 0.1M acetic acid is added to an lodogen®-coated borosilicate glass tube pierce) containing 35 μL of 0.05M phosphate buffer (pH 7.4-7.6) and 1 mCi of Na[^125I]. The reaction mixture is vortexed and incubated for 1 minute at room temperature. After one minute, the mixture is vortexed again and allowed to incubate for an additional minute. Two mL of 0.5M acetic acid/1% BSA is added to the reaction tube, and the mixture is added to a C18 Sep-Pak cartridge. The cartridge is washed with subsequent washes of 5 mL H2O and 5 mL 0.5M acetic acid, and then eluted with 5×1 mL of 60% CH3CN/40% 0.5M acetic acid. The eluant is diluted with 3×volume of HPLC buffer A (0.1% TFA in H2O) and loaded onto a C18 column. The iodinated product is eluted over 20-25 minutes with a gradient of 25-100% CH3CN containing 0.1% TFA. The radioactive fractions (750 μL/fraction) are collected into clean polypropylene tubes containing 10 μL of 10% BSA. Fractions are assessed for biological activity by radioligand binding. Active fractions are utilized to screen the compounds for competitive binding assays.
# HEK 293 cell membranes stably expressing hGnRHR (human GnRH receptors) are diluted to 0.5-1.0 mg/mL with assay buffer containing 50 mM HEPES (pH 7.4), 1 mM ethylenediarninetetraacetic acid (EDTA), 2.5 mM MgCl2, and 0.1% BSA. […]
row,SMILES,remaining activity at 10 µM [%]
1,CC(=O)O[C@@H](C)C(=O)N(Cc1cc2c(cc1C)C(C)(C)CCC2(C)C)CC1CCC(CNC(=N)N)CC1 (stereo partly drawn) [Compound 119],57
2,Cc1cc2c(cc1CN(CC1CCCC(CNC(=N)N)C1)C(=O)c1cccc3ccccc13)C(C)(C)CCC2(C)C (stereo not drawn) [Compound 53],51
3,N=C(N)NCC1CCC(CN(CC23CC=CCC2C2CC=CCC2O3)C(=O)c2cc3ccccc3s2)CC1 (stereo not drawn) [Compound 78],59
4,N=C(N)NCC1CCC(CN(Cc2cccc(Oc3ccc(Cl)cc3)c2)C(=O)C2CCCC2)CC1 (stereo not drawn) [Compound 77],52
5,N=C(N)NCCCCN(Cc1ccc(OCc2ccccc2)c(OCc2ccccc2)c1)C(=O)C1CCCCC1 [Compound 33],59
6,Cc1cc2c(cc1CN(CCCCNC(=N)N)C(=O)c1ccc3ccccc3c1)C(C)(C)CCC2(C)C [Compound 29],57
7,Cc1cc2c(cc1CN(CC1CCC(CNC(=N)N)CC1)C(=O)Cc1ccccc1)C(C)(C)CCC2(C)C (stereo not drawn) [Compound 102],60
8,Cc1cc2c(cc1CN(CCCCNC(=N)N)C(=O)c1cccc3ccccc13)C(C)(C)CCC2(C)C [Compound 28],52
9,CCOc1cc(OCC)c(OCC)cc1CN(CC1CCC(CNC(=N)N)CC1)C(=O)c1ccco1 (stereo not drawn) [Compound 87],52
10,CC(=O)N(Cc1cc2c(cc1C)C(C)(C)CCC2(C)C)CC1CCC(CNC(=N)N)CC1 (stereo not drawn) [Compound 83],55
11,Cc1cc2c(cc1CN(CCCCNC(=N)N)C(=O)c1ccc(Cl)nc1)C(C)(C)CCC2(C)C [Compound 32],57
12,N=C(N)NCC1CCCC(CN(CC23CC=CCC2C2CC=CCC2O3)C(=O)c2ccc3ccccc3c2)C1 (stereo not drawn) [Compound 48],44
13,Cc1cc2c(cc1CN(CC1CCC(CNC(=N)N)CC1)C(=O)c1ccc([N+](=O)[O-])o1)C(C)(C)CCC2(C)C (stereo not drawn) [Compound 79],49
14,Cc1cc2c(cc1CN(Cc1cccc(CNC(=N)N)c1)C(=O)c1ccco1)C(C)(C)CCC2(C)C [Compound 40],12
15,CN(C)CCCOc1ccc(CN(Cc2ccc(CNC(=N)N)cc2)C(=O)c2ccc3ccccc3c2)cc1 [Compound 3],55

# Same assay, conditions: compound at 10 μM; crude compounds; 125I-GnRH-A; lower value = higher inhibition; read-out: % Remaining 1st Test (percent of specific binding remaining)
row,SMILES,remaining activity at 10 µM [%]
1,CC(=O)O[C@@H](C)C(=O)N(Cc1cc2c(cc1C)C(C)(C)CCC2(C)C)CC1CCC(CNC(=N)N)CC1 (stereo partly drawn) [Compound 119],57
2,Cc1cc2c(cc1CN(CC1CCCC(CNC(=N)N)C1)C(=O)c1cccc3ccccc13)C(C)(C)CCC2(C)C (stereo not drawn) [Compound 53],46
3,N=C(N)NCC1CCC(CN(CC23CC=CCC2C2CC=CCC2O3)C(=O)c2cc3ccccc3s2)CC1 (stereo not drawn) [Compound 78],59
4,N=C(N)NCC1CCC(CN(Cc2cccc(Oc3ccc(Cl)cc3)c2)C(=O)C2CCCC2)CC1 (stereo not drawn) [Compound 77],48
5,N=C(N)NCCCCN(Cc1ccc(OCc2ccccc2)c(OCc2ccccc2)c1)C(=O)C1CCCCC1 [Compound 33],52
6,Cc1cc2c(cc1CN(CCCCNC(=N)N)C(=O)c1ccc3ccccc3c1)C(C)(C)CCC2(C)C [Compound 29],53
7,Cc1cc2c(cc1CN(CC1CCC(CNC(=N)N)CC1)C(=O)Cc1ccccc1)C(C)(C)CCC2(C)C (stereo not drawn) [Compound 102],66
8,Cc1cc2c(cc1CN(CCCCNC(=N)N)C(=O)c1cccc3ccccc13)C(C)(C)CCC2(C)C [Compound 28],46
9,CCOc1cc(OCC)c(OCC)cc1CN(CC1CCC(CNC(=N)N)CC1)C(=O)c1ccco1 (stereo not drawn) [Compound 87],57
10,CC(=O)N(Cc1cc2c(cc1C)C(C)(C)CCC2(C)C)CC1CCC(CNC(=N)N)CC1 (stereo not drawn) [Compound 83],53
11,Cc1cc2c(cc1CN(CCCCNC(=N)N)C(=O)c1ccc(Cl)nc1)C(C)(C)CCC2(C)C [Compound 32],52
12,N=C(N)NCC1CCCC(CN(CC23CC=CCC2C2CC=CCC2O3)C(=O)c2ccc3ccccc3c2)C1 (stereo not drawn) [Compound 48],48
13,Cc1cc2c(cc1CN(CC1CCC(CNC(=N)N)CC1)C(=O)c1ccc([N+](=O)[O-])o1)C(C)(C)CCC2(C)C (stereo not drawn) [Compound 79],50
14,Cc1cc2c(cc1CN(Cc1cccc(CNC(=N)N)c1)C(=O)c1ccco1)C(C)(C)CCC2(C)C [Compound 40],12
15,CN(C)CCCOc1ccc(CN(Cc2ccc(CNC(=N)N)cc2)C(=O)c2ccc3ccccc3c2)cc1 [Compound 3],58

# Same assay, conditions: compound at 10 μM; crude compounds; 125I-GnRH-A; lower value = higher inhibition; read-out: % Remaining 2nd Test (percent of specific binding remaining)
row,SMILES,remaining activity at 10 µM [%]
1,CC(=O)O[C@@H](C)C(=O)N(Cc1cc2c(cc1C)C(C)(C)CCC2(C)C)CC1CCC(CNC(=N)N)CC1 (stereo partly drawn) [Compound 119],57
2,Cc1cc2c(cc1CN(CC1CCCC(CNC(=N)N)C1)C(=O)c1cccc3ccccc13)C(C)(C)CCC2(C)C (stereo not drawn) [Compound 53],55
3,N=C(N)NCC1CCC(CN(CC23CC=CCC2C2CC=CCC2O3)C(=O)c2cc3ccccc3s2)CC1 (stereo not drawn) [Compound 78],58
4,N=C(N)NCC1CCC(CN(Cc2cccc(Oc3ccc(Cl)cc3)c2)C(=O)C2CCCC2)CC1 (stereo not drawn) [Compound 77],56
5,N=C(N)NCCCCN(Cc1ccc(OCc2ccccc2)c(OCc2ccccc2)c1)C(=O)C1CCCCC1 [Compound 33],65
6,Cc1cc2c(cc1CN(CCCCNC(=N)N)C(=O)c1ccc3ccccc3c1)C(C)(C)CCC2(C)C [Compound 29],61
7,Cc1cc2c(cc1CN(CC1CCC(CNC(=N)N)CC1)C(=O)Cc1ccccc1)C(C)(C)CCC2(C)C (stereo not drawn) [Compound 102],54
8,Cc1cc2c(cc1CN(CCCCNC(=N)N)C(=O)c1cccc3ccccc13)C(C)(C)CCC2(C)C [Compound 28],57
9,CCOc1cc(OCC)c(OCC)cc1CN(CC1CCC(CNC(=N)N)CC1)C(=O)c1ccco1 (stereo not drawn) [Compound 87],47
10,CC(=O)N(Cc1cc2c(cc1C)C(C)(C)CCC2(C)C)CC1CCC(CNC(=N)N)CC1 (stereo not drawn) [Compound 83],57
11,Cc1cc2c(cc1CN(CCCCNC(=N)N)C(=O)c1ccc(Cl)nc1)C(C)(C)CCC2(C)C [Compound 32],61
12,N=C(N)NCC1CCCC(CN(CC23CC=CCC2C2CC=CCC2O3)C(=O)c2ccc3ccccc3c2)C1 (stereo not drawn) [Compound 48],40
13,Cc1cc2c(cc1CN(CC1CCC(CNC(=N)N)CC1)C(=O)c1ccc([N+](=O)[O-])o1)C(C)(C)CCC2(C)C (stereo not drawn) [Compound 79],48
14,Cc1cc2c(cc1CN(Cc1cccc(CNC(=N)N)c1)C(=O)c1ccco1)C(C)(C)CCC2(C)C [Compound 40],11
15,CN(C)CCCOc1ccc(CN(Cc2ccc(CNC(=N)N)cc2)C(=O)c2ccc3ccccc3c2)cc1 [Compound 3],57
